ChEMBL document CHEMBL4052645, “Discovery of potent and efficacious pyrrolopyridazines as dual JAK1/3 inhibitors” (Bioorg Med Chem Lett, 2017)

Columns and labels:
[1] = target: Rho-associated protein kinase 1 (Homo sapiens, UniProt Q13464); assay: Inhibition of human ROCK1 (M1 to R415 residues) expressed in mammalian expression system assessed as residual activity at 50 nM by KINOMEscan assay relative to control
[2] = target: Fibroblast growth factor receptor 1 (Homo sapiens) (UniProt P11362); assay: Inhibition of wild-type human partial length FGFR1 (P357 to V669 residues) expressed in bacterial expression system assessed as residual activity at 50 nM by Kinomescan method relative to control
[3] = target: cAMP-dependent protein kinase catalytic subunit beta (Homo sapiens) (UniProt P22694); assay: Inhibition of wild-type human full length PKACB (M1 to F351 residues) expressed in bacterial expression system assessed as residual activity at 50 nM by Kinomescan method relative to control
[4] = target: Myosin-IIIb (Homo sapiens) (UniProt Q8WXR4); assay: Inhibition of wild-type human partial length MYO3B (M1 to D357 residues) expressed in bacterial expression system assessed as residual activity at 50 nM by Kinomescan method relative to control
[5] = target: Cyclin-dependent kinase-like 3 (Homo sapiens) (UniProt Q8IVW4); assay: Inhibition of wild-type human partial length CDKL3 (M1 to D327 residues) expressed in bacterial expression system assessed as residual activity at 50 nM by Kinomescan method relative to control
[6] = target: Myosin light chain kinase, smooth muscle (Homo sapiens) (UniProt Q15746); assay: Inhibition of wild-type human full length SMMLCK (M854 to E1845 residues) expressed in mammalian expression system assessed as residual activity at 50 nM by Kinomescan method relative to control
[7] = target: Wee1-like protein kinase (Homo sapiens) (UniProt P30291); assay: Inhibition of wild-type human partial length WEE1 (M291 to K575 residues) expressed in bacterial expression system assessed as residual activity at 50 nM by Kinomescan method relative to control
[8] = target: Casein kinase I isoform delta (Homo sapiens) (UniProt P48730); assay: Inhibition of wild-type human full length CK1D (M1 to K409 residues) expressed in bacterial expression system assessed as residual activity at 50 nM by Kinomescan method relative to control
Sequence of Casein kinase I isoform delta (Homo sapiens) (P48730 whole entry, looked up, the tested form may be a part, canonical isoform): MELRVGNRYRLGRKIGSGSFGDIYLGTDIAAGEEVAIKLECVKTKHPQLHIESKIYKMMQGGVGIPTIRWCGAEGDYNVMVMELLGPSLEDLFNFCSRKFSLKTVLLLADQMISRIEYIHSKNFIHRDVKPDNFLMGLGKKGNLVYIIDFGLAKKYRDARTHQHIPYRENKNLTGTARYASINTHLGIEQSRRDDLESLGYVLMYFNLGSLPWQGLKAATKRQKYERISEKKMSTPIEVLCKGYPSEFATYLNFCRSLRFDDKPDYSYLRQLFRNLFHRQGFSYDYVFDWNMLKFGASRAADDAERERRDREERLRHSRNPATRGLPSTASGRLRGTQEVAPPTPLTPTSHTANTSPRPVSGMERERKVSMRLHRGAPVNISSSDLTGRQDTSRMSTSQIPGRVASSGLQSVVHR

[9] = target: Ribosomal protein S6 kinase alpha-1 (Homo sapiens) (UniProt Q15418); assay: Inhibition of wild-type human partial length N-terminal RSK1 Kinase domain 1 (M1 to E388 residues) expressed in bacterial expression system assessed as residual activity at 50 nM by Kinomescan method relative to control
[10] = target: MAP kinase-activated protein kinase 2 (Homo sapiens) (UniProt P49137); assay: Inhibition of wild-type human partial length MAPKAPK2 (V48 to D345 residues) expressed in bacterial expression system assessed as residual activity at 50 nM by Kinomescan method relative to control
[11] = target: Cytoplasmic tyrosine-protein kinase BMX (Homo sapiens) (UniProt P51813); assay: Inhibition of wild-type human full length BMX (M1 to H675 residues) expressed in bacterial expression system assessed as residual activity at 50 nM by Kinomescan method relative to control
[12] = target: Phosphatidylinositol 4-phosphate 5-kinase type-1 alpha (Homo sapiens) (UniProt Q99755); assay: Inhibition of human PIP5K1A (M1 to H562 residues) expressed in bacterial expression system assessed as residual activity at 50 nM by KINOMEscan assay relative to control
Sequence of Phosphatidylinositol 4-phosphate 5-kinase type-1 alpha (Homo sapiens) (Q99755 whole entry, the tested form may be a part): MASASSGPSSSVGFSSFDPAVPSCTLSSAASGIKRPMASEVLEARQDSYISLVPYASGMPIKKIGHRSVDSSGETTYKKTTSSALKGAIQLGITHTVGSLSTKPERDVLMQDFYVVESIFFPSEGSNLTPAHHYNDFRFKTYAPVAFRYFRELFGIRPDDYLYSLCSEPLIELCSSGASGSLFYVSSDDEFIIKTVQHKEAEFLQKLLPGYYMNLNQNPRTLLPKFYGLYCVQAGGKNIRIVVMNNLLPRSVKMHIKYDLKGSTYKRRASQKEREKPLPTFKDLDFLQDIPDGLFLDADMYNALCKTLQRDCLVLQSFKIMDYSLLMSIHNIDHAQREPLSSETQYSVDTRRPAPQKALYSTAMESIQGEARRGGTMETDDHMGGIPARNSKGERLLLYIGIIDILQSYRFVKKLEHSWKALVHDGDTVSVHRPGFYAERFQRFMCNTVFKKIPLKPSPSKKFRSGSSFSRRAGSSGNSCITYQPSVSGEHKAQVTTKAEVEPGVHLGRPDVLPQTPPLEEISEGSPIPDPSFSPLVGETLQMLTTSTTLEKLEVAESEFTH

[13] = target: Calcium/calmodulin-dependent protein kinase type IV (Homo sapiens) (UniProt Q16566); assay: Inhibition of wild-type human partial length CAMK4 (A22 to A322 residues) expressed in bacterial expression system assessed as residual activity at 50 nM by Kinomescan method relative to control
[14] = target: Hormonally up-regulated neu tumor-associated kinase (Homo sapiens) (UniProt P57058); assay: Inhibition of wild-type human partial length HUNK (A31 to K354 residues) expressed in bacterial expression system assessed as residual activity at 50 nM by Kinomescan method relative to control
[15] = target: Dual serine/threonine and tyrosine protein kinase (Homo sapiens) (UniProt Q6XUX3); assay: Inhibition of wild-type human full length RIPK5 (M1 to T929 residues) expressed in mammalian expression system assessed as residual activity at 50 nM by Kinomescan method relative to control
Sequence of Dual serine/threonine and tyrosine protein kinase (Homo sapiens) (Q6XUX3 whole entry, the tested form may be a part): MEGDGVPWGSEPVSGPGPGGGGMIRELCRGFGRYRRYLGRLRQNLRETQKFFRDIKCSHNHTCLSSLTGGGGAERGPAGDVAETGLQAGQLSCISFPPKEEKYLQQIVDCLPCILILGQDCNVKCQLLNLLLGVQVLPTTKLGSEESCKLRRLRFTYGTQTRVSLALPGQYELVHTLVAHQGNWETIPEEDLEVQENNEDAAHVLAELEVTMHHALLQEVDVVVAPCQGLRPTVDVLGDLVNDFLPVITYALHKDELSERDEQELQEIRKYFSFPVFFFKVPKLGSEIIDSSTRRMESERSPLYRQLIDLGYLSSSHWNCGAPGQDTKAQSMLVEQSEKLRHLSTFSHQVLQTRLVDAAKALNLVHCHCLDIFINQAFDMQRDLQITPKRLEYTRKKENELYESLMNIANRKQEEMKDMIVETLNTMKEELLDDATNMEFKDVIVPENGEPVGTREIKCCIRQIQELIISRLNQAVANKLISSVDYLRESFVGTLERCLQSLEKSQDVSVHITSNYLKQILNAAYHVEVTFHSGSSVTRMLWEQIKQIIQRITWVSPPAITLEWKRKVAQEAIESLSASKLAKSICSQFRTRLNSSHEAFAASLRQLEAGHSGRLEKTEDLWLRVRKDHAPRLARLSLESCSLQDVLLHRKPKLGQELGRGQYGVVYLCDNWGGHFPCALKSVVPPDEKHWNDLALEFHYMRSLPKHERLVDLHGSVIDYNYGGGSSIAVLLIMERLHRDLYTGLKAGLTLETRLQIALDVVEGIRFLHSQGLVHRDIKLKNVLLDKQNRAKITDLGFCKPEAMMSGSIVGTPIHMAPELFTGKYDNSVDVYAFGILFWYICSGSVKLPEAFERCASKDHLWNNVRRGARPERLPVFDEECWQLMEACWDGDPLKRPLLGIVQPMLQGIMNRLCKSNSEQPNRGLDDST

[16] = target: Calcium/calmodulin-dependent protein kinase kinase 2 (Homo sapiens) (UniProt Q96RR4); assay: Inhibition of wild-type human partial length CAMKK2 (D65 to V471 residues) expressed in bacterial expression system assessed as residual activity at 50 nM by Kinomescan method relative to control
[17] = target: Aurora kinase B (Homo sapiens) (UniProt Q96GD4); assay: Inhibition of wild-type human partial length AURB (D25 to A303 residues) expressed in mammalian expression system assessed as residual activity at 50 nM by Kinomescan method relative to control
Sequence of Aurora kinase B (Homo sapiens) (Q96GD4 whole entry, the tested form may be a part): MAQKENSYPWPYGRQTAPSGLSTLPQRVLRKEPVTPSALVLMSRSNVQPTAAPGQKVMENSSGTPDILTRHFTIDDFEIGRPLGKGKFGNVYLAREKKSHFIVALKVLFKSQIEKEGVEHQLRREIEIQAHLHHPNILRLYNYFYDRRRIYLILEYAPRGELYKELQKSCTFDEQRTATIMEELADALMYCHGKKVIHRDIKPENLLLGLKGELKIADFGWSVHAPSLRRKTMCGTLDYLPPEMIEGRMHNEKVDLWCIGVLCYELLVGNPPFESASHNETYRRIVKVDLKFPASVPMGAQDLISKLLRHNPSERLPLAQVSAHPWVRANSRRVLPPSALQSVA

[18] = target: Cyclin-dependent kinase 15 (Homo sapiens) (UniProt Q96Q40); assay: Inhibition of wild-type human full length PFTAIRE2 (M1 to W384 residues) expressed in bacterial expression system assessed as residual activity at 50 nM by Kinomescan method relative to control
[19] = target: Activin receptor type-1 (Homo sapiens) (UniProt Q04771); assay: Inhibition of wild-type human ALK2 (C188 to C509 residues) expressed in bacterial expression system assessed as residual activity at 50 nM by Kinomescan method relative to control
Sequence of Activin receptor type-1 (Homo sapiens) (Q04771 whole entry, the tested form may be a part): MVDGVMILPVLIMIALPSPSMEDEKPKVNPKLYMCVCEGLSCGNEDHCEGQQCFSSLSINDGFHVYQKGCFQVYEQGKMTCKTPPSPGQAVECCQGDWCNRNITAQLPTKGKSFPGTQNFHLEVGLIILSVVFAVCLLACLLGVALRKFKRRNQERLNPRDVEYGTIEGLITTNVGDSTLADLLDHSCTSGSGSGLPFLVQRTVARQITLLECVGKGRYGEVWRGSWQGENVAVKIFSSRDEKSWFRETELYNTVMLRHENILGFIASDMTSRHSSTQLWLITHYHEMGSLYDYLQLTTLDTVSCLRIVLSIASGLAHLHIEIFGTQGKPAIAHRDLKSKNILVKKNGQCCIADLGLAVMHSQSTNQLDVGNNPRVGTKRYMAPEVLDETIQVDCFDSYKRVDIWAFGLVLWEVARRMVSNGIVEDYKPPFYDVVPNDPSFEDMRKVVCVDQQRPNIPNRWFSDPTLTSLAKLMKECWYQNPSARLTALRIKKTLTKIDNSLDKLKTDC

[20] = target: Inhibitor of nuclear factor kappa-B kinase subunit epsilon (Homo sapiens) (UniProt Q14164); assay: Inhibition of wild-type human full length IKK-epsilon (M1 to V716 residues) expressed in mammalian expression system assessed as residual activity at 50 nM by Kinomescan method relative to control
[21] = target: Serine/threonine-protein kinase ULK1 (Homo sapiens) (UniProt O75385); assay: Inhibition of human ULK1 (M1 to T309 residues) expressed in mammalian expression system assessed as residual activity at 50 nM by KINOMEscan assay relative to control
[22] = target: Calcium/calmodulin-dependent protein kinase type 1D (Homo sapiens) (UniProt Q8IU85); assay: Inhibition of wild-type human partial length CAMK1D (M1 to K299 residues) expressed in bacterial expression system assessed as residual activity at 50 nM by Kinomescan method relative to control
[23] = target: Receptor tyrosine-protein kinase erbB-3 (Homo sapiens) (UniProt P21860); assay: Inhibition of wild-type human partial length ERBB3 (G684 to A987 residues) expressed in mammalian expression system assessed as residual activity at 50 nM by Kinomescan method relative to control
[24] = target: Serine/threonine-protein kinase TBK1 (Homo sapiens) (UniProt Q9UHD2); assay: Inhibition of wild-type human full length TBK1 (M1 to L729 residues) expressed in mammalian expression system assessed as residual activity at 50 nM by Kinomescan method relative to control
Sequence of Serine/threonine-protein kinase TBK1 (Homo sapiens) (Q9UHD2 whole entry, the tested form may be a part): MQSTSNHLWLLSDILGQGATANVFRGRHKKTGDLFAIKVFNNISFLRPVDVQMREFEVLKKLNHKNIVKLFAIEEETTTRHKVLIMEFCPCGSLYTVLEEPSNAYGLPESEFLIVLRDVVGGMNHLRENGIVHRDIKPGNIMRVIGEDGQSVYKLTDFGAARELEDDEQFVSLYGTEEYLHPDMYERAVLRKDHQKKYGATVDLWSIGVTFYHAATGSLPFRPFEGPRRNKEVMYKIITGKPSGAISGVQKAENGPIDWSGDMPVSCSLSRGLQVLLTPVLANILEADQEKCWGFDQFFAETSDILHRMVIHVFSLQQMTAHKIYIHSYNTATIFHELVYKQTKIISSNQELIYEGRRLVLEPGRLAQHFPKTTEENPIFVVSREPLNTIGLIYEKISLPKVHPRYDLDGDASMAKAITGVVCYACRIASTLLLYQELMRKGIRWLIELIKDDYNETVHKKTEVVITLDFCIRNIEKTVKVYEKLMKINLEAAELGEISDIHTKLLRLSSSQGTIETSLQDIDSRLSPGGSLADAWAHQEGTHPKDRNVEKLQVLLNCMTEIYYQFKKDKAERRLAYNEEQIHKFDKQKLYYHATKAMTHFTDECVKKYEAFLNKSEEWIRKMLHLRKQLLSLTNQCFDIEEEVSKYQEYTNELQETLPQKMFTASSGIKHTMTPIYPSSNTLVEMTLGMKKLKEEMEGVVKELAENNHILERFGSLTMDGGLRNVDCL

[25] = target: Serine/threonine-protein kinase Nek9 (Homo sapiens) (UniProt Q8TD19); assay: Inhibition of wild-type human partial length NEK9 (P32 to R328 residues) expressed in bacterial expression system assessed as residual activity at 50 nM by Kinomescan method relative to control

Sequence of Rho-associated protein kinase 1 (Q13464 2-1354 limits assumed): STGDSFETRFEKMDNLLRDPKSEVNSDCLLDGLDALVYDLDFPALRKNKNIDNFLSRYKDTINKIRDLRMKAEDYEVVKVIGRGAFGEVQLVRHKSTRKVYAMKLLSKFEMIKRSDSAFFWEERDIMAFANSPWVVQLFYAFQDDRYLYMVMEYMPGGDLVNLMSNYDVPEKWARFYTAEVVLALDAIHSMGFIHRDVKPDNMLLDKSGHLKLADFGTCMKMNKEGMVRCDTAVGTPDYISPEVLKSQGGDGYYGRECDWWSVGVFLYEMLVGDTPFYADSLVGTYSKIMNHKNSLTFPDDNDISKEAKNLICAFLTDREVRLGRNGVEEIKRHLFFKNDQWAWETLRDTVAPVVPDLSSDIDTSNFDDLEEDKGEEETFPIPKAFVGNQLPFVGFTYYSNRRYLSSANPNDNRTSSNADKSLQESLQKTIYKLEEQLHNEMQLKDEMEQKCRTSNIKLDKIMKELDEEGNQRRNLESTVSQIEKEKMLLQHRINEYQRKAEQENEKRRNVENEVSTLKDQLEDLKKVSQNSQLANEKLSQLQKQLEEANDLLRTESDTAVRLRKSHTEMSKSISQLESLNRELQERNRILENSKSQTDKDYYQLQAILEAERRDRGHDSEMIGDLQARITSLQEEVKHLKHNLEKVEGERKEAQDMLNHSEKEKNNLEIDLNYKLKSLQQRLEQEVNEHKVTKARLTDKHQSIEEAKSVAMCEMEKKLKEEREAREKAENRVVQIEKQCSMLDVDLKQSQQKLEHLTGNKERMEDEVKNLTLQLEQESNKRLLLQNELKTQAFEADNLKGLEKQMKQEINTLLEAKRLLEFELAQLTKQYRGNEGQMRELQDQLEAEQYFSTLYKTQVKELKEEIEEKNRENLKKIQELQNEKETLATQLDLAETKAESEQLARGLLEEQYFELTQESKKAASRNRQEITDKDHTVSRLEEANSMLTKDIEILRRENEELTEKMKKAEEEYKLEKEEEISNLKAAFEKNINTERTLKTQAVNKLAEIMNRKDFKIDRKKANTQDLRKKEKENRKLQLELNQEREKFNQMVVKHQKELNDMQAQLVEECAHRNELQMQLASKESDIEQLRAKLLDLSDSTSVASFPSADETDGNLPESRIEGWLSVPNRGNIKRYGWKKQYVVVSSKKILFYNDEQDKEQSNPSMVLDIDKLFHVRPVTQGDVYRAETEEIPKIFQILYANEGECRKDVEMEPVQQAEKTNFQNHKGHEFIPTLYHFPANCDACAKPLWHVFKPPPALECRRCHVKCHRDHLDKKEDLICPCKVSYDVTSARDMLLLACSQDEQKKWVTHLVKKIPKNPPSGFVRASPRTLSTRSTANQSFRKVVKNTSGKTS

Row | Structure (SMILES) | Activity [1] [%] | Activity [2] [%] | Activity [3] [%] | Activity [4] [%] | Activity [5] [%] | Activity [6] [%] | Activity [7] [%] | Activity [8] [%] | Activity [9] [%] | Activity [10] [%] | Activity [11] [%] | Activity [12] [%] | Activity [13] [%] | Activity [14] [%] | Activity [15] [%] | Activity [16] [%] | Activity [17] [%] | Activity [18] [%] | Activity [19] [%] | Activity [20] [%] | other results
1 | CC1(C)[C@H](Nc2c(C(N)=O)cnn3cc(-c4ccccc4)cc23)CC[C@]1(C)N | 5.3 | 81 | 100 | 100 | 100 | 100 | 97 | 98 | 67 | 100 | 100 | 8.8 | 100 | 65 | 92 | 83 | 64 | 100 | 100 | 100 | Activity [21]: 27%; Activity [22]: 100%; Activity [23]: 100%; Activity [24]: 90%; Activity [25]: 100%
2 | COc1ccc(-c2cc3c(N[C@@H]4CC[C@](C)(N)C4(C)C)c(C(N)=O)cnn3c2)cn1 | 36 | 92 | 100 | 100 | 98 | 87 | 100 | 100 | 100 | 100 | 64 | 17 | 100 | 100 | 74 | 64 | 100 | 90 | 96 | 91 | Activity [21]: 61%; Activity [22]: 100%; Activity [23]: 100%; Activity [24]: 97%; Activity [25]: 100%
